Measured values published in patent US20220265629A1, “TREATMENT OF SYSTOLIC DYSFUNCTION AND HEART FAILURE WITH REDUCED EJECTION FRACTION WITH THE COMPOUND (R)-4-(1-((3-(DIFLUOROMETHYL)-1-METHYL-1H-PYRAZOL-4-YL)SULFONYL)-1-FLUOROETHYL)-N-(ISOXAZOL-3-YL)PIPERIDINE-1-CARBOXAMIDE” (MyoKardia, Inc., priority 2019, published 2022).
Read-outs that look alike come from different tables or passages of the source.

Test: Single ascending oral dose study in healthy volunteers: plasma pharmacokinetics
Type: in vivo, human
Settings: human, plasma, oral; for concentration at 6 h: 6 Hours Postdose; for concentration at 12 h: 12 Hours Postdose; for concentration at 24 h: 24 Hours Postdose; for concentration at 48 h: 48 Hours Postdose; for concentration at 72 h: 72 Hours Postdose
Text: This example describes the first-in-human study of Compound I. Based on its mechanism of action, Compound I may offer a targeted therapy for patients with DCM caused by genetic or nongenetic mechanisms. The study was a randomized, double-blind, placebo-controlled, sequential group, single-ascending (oral) close study in healthy subjects aged 18-55 years. Eight dosing cohorts, each comprising eight healthy subjects, were enrolled. Within each cohort, subjects were randomized 6:2 to Compound I:placebo.
Subjects were resident at the clinical site for up to 5 days and 4 nights, from Day −1 (the day before dosing) to Day 4, and received a single dose of Compound I or placebo on Day 1. ECG telemetry was initiated 1 hour preclose and continued through 48 hours postclose (Day 3). Any subject with a preclose resting HR≥80 beats per minute was considered ineligible and not treated. […] Subjects returned for a safety follow-up visit 7 days (±1 day) after dosing.
All randomized study subjects received either Compound I or matching placebo as a single oral dose after a fasting period of at least 6 hours. Compound I drug substance is a crystalline, free-base, synthetic molecule with a molecular weight of 435.4 g/mol.
Compound I was provided as a powder for oral suspension. Placebo was provided as calcium carbonate powder. Both treatments were closed orally as a suspension. The suspension was made using Ora-Plus® suspending vehicle (Perrigo) and a cherry syrup flavoring vehicle (Humco), mixed 50% to 50%. The suspension was followed by approximately 100 mL water. The suspension was made up within 14 days from the time in which it was closed which was consistent with the stability data on the suspension. The suspension was made up so the volume administered to the subjects who received Compound I was the same at 20 mL.
Each subject received a close according to the cohort in which they were enrolled. Cohorts were enrolled sequentially, with each cohort receiving an escalated dose of Compound I. The closes administered were 3 mg, 10 mg, 25 mg, 50 mg, 100 mg, 175 mg, 350 mg, and 525 mg, respectively.
The concentrations of Compound I in human plasma and urine were quantitated by high performance liquid chromatography with tandem mass spectrometric detection (LC MS/MS) (Biological sample analysis study report Alturas AD17-726). Plasma samples were extracted by protein precipitation with acetonitrile containing internal standard MYK-5654. The calibration curves were linear over concentration range of 0.500 to 1000 ng/mL with a lower limit of quantification (LLOQ) of 0.500 ng/mL.
The PK Population included all subjects who received Compound I. Blood samples were collected for PK assessments. The actual timing of the samples may have been modified and/or up to an additional 2 samples may have been requested by the SRC after review of the data from previous cohorts. It was important that PK sampling occurred as closely as possible to the scheduled time (±10%). Both blood and urine samples were used for PK assessments.
In addition, for subjects who received placebo, a single plasma sample near the predicted tmax of Compound I was evaluated to confirm the lack of circulating Compound I. Plasma concentration data for Compound I was summarized using descriptive statistics, including mean, standard deviation (SD), median, minimum, and maximum values, and percent coefficient of variation. Other PK parameters included (but were not limited to) Cmax, tmax, AUC, t1/2, and MRT. Additionally, the apparent terminal-phase terminal half-life was calculated. The close proportionality of AUC and Cmax was explored.

[1] = 100 mg, 100 mg, read-out: Plasma concentration, Geometric Mean
[2] = 100 mg, 100 mg, read-out: Plasma concentration, Mean
[3] = 100 mg, 100 mg, read-out: Plasma concentration, Median
[4] = 175 mg, 175 mg, read-out: Plasma concentration, Geometric Mean
[5] = 175 mg, 175 mg, read-out: Plasma concentration, Mean
[6] = 175 mg, 175 mg, read-out: Plasma concentration, Median

## Cn1cc(S(=O)(=O)[C@@](C)(F)C2CCN(C(=O)Nc3ccon3)CC2)c(C(F)F)n1 [Compound I, (R)-4-(1-((3-(difluoromethyl)-1-methyl-1H-pyrazol-4-yl)sulfonyl)-1-fluoroethyl)-N-(isoxazol-3-yl)piperidine-1-carboxamide]
50 mg, read-out: Vz/F, Mean
  Vd/F: 87.9 L
50 mg, read-out: Vz/F, Median
  Vd/F: 90.6 L
[1]
  concentration at 6 h: 934 ng/mL
  concentration at 12 h: 661 ng/mL
  concentration at 24 h: 374 ng/mL
  concentration at 48 h: 71 ng/mL
[2]
  concentration at 6 h: 947 ng/mL
  concentration at 12 h: 674 ng/mL
  concentration at 24 h: 384 ng/mL
  concentration at 48 h: 91.1 ng/mL
  concentration at 72 h: 23.2 ng/mL
[3]
  concentration at 6 h: 935 ng/mL
  concentration at 12 h: 637 ng/mL
  concentration at 24 h: 372 ng/mL
  concentration at 48 h: 104 ng/mL
  concentration at 72 h: 24.2 ng/mL
100 mg, read-out: AUC0-24, Geometric Mean
  AUC(0-t): 15200 ng·h/mL
100 mg, read-out: AUC0-24, Mean
  AUC(0-t): 15400 ng·h/mL
100 mg, read-out: AUC0-24, Median
  AUC(0-t): 14900 ng·h/mL
100 mg, read-out: AUC0-48, Geometric Mean
  AUC(0-t): 21100 ng·h/mL
100 mg, read-out: AUC0-48, Mean
  AUC(0-t): 21400 ng·h/mL
100 mg, read-out: AUC0-48, Median
  AUC(0-t): 21600 ng·h/mL
100 mg, read-out: AUC0-last, Geometric Mean
  AUC(0-t): 21700 ng·h/mL
100 mg, read-out: AUC0-last, Mean
  AUC(0-t): 22700 ng·h/mL
100 mg, read-out: AUC0-last, Median
  AUC(0-t): 22400 ng·h/mL
100 mg, read-out: AUC0-∞, Geometric Mean
  AUC(0-inf): 21300 ng·h/mL
100 mg, read-out: AUC0-∞, Mean
  AUC(0-inf): 21700 ng·h/mL
100 mg, read-out: AUC0-∞, Median
  AUC(0-inf): 18700 ng·h/mL
100 mg, read-out: Cmax, Geometric Mean
  Cmax: 1000 ng/mL
100 mg, read-out: Cmax, Mean
  Cmax: 1020 ng/mL
100 mg, read-out: Cmax, Median
  Cmax: 983 ng/mL
100 mg, read-out: Half-Life Lambda Z, Geometric Mean (converted)
  half-life: 11.1 h
100 mg, read-out: Half-Life Lambda Z, Mean (converted)
  half-life: 11.7 h
100 mg, read-out: Half-Life Lambda Z, Median (converted)
  half-life: 12.5 h
100 mg, read-out: Mean Residence Time, Geometric Mean
  MRT: 19.1 h
100 mg, read-out: Mean Residence Time, Mean
  MRT: 19.5 h
100 mg, read-out: Mean Residence Time, Median
  MRT: 20.4 h
100 mg, read-out: Tmax, Geometric Mean
  Tmax: 4.42 h
100 mg, read-out: Tmax, Mean
  Tmax: 4.5 h
100 mg, read-out: Tmax, Median
  Tmax: 5 h
100 mg, read-out: Vz/F, Geometric Mean
  Vd/F: 74.9 L
100 mg, read-out: Vz/F, Mean
  Vd/F: 77.9 L
100 mg, read-out: Vz/F, Median
  Vd/F: 82.1 L
[4]
  concentration at 6 h: 1260 ng/mL
  concentration at 12 h: 1040 ng/mL
  concentration at 24 h: 650 ng/mL
  concentration at 48 h: 203 ng/mL
  concentration at 72 h: 64 ng/mL
[5]
  concentration at 6 h: 1270 ng/mL
  concentration at 12 h: 1050 ng/mL
  concentration at 24 h: 664 ng/mL
  concentration at 48 h: 212 ng/mL
  concentration at 72 h: 71.3 ng/mL
[6]
  concentration at 6 h: 1250 ng/mL
  concentration at 12 h: 1040 ng/mL
  concentration at 24 h: 690 ng/mL
  concentration at 48 h: 224 ng/mL
  concentration at 72 h: 73.2 ng/mL
175 mg, read-out: AUC0-24, Geometric Mean
  AUC(0-t): 22000 ng·h/mL
175 mg, read-out: AUC0-24, Mean
  AUC(0-t): 22300 ng·h/mL
175 mg, read-out: AUC0-24, Median
  AUC(0-t): 21700 ng·h/mL
175 mg, read-out: AUC0-48, Geometric Mean
  AUC(0-t): 32300 ng·h/mL
175 mg, read-out: AUC0-48, Mean
  AUC(0-t): 32800 ng·h/mL
175 mg, read-out: AUC0-48, Median
  AUC(0-t): 32700 ng·h/mL
175 mg, read-out: AUC0-last, Geometric Mean
  AUC(0-t): 38200 ng·h/mL
175 mg, read-out: AUC0-last, Mean
  AUC(0-t): 39000 ng·h/mL
175 mg, read-out: AUC0-last, Median
  AUC(0-t): 39600 ng·h/mL
175 mg, read-out: AUC0-∞, Geometric Mean
  AUC(0-inf): 38300 ng·h/mL
175 mg, read-out: AUC0-∞, Mean
  AUC(0-inf): 39100 ng·h/mL
175 mg, read-out: AUC0-∞, Median
  AUC(0-inf): 39700 ng·h/mL
175 mg, read-out: Cmax, Geometric Mean
  Cmax: 1300 ng/mL
175 mg, read-out: Cmax, Mean
  Cmax: 1320 ng/mL
175 mg, read-out: Cmax, Median
  Cmax: 1300 ng/mL
175 mg, read-out: Half-Life Lambda Z, Geometric Mean (converted)
  half-life: 15.8 h
175 mg, read-out: Half-Life Lambda Z, Mean (converted)
  half-life: 15.8 h
175 mg, read-out: Half-Life Lambda Z, Median (converted)
  half-life: 16.4 h
175 mg, read-out: Mean Residence Time, Geometric Mean
  MRT: 24.4 h
175 mg, read-out: Mean Residence Time, Mean
  MRT: 24.6 h
175 mg, read-out: Mean Residence Time, Median
  MRT: 24.4 h
175 mg, read-out: Tmax, Geometric Mean
  Tmax: 5.07 h
175 mg, read-out: Tmax, Mean
  Tmax: 5.11 h
175 mg, read-out: Tmax, Median
  Tmax: 5 h
175 mg, read-out: Vz/F, Geometric Mean
  Vd/F: 104 L
175 mg, read-out: Vz/F, Mean
  Vd/F: 106 L
175 mg, read-out: Vz/F, Median
  Vd/F: 101 L
350 mg + 525 mg, read-out: AUC0-24, Geometric Mean
  AUC(0-t): 40900 ng·h/mL
350 mg + 525 mg, read-out: AUC0-24, Mean
  AUC(0-t): 42100 ng·h/mL
350 mg + 525 mg, read-out: AUC0-24, Median
  AUC(0-t): 38500 ng·h/mL
350 mg + 525 mg, read-out: AUC0-48, Geometric Mean
  AUC(0-t): 60500 ng·h/mL
350 mg + 525 mg, read-out: AUC0-48, Mean
  AUC(0-t): 62400 ng·h/mL
350 mg + 525 mg, read-out: AUC0-48, Median
  AUC(0-t): 57400 ng·h/mL
350 mg + 525 mg, read-out: AUC0-last, Geometric Mean
  AUC(0-t): 70600 ng·h/mL
350 mg + 525 mg, read-out: AUC0-last, Mean
  AUC(0-t): 74000 ng·h/mL
350 mg + 525 mg, read-out: AUC0-last, Median
  AUC(0-t): 68600 ng·h/mL
350 mg + 525 mg, read-out: AUC0-∞, Geometric Mean
  AUC(0-inf): 71000 ng·h/mL
350 mg + 525 mg, read-out: AUC0-∞, Mean
  AUC(0-inf): 74400 ng·h/mL
350 mg + 525 mg, read-out: AUC0-∞, Median
  AUC(0-inf): 68800 ng·h/mL
350 mg + 525 mg, read-out: Cmax, Geometric Mean
  Cmax: 2530 ng/mL
350 mg + 525 mg, read-out: Cmax, Mean
  Cmax: 2580 ng/mL
350 mg + 525 mg, read-out: Cmax, Median
  Cmax: 2500 ng/mL
350 mg + 525 mg, read-out: Half-Life Lambda Z, Geometric Mean (converted)
  half-life: 14.5 h
350 mg + 525 mg, read-out: Half-Life Lambda Z, Mean (converted)
  half-life: ~15 h
350 mg + 525 mg, read-out: Half-Life Lambda Z, Median (converted)
  half-life: 14.5 h
350 mg + 525 mg, read-out: Mean Residence Time, Geometric Mean
  MRT: 23.9 h
350 mg + 525 mg, read-out: Mean Residence Time, Mean
  MRT: 24.3 h
350 mg + 525 mg, read-out: Mean Residence Time, Median
  MRT: 23.5 h
350 mg + 525 mg, read-out: Tmax, Geometric Mean
  Tmax: 4.89 h
350 mg + 525 mg, read-out: Tmax, Mean
  Tmax: 5 h
350 mg + 525 mg, read-out: Vz/F, Geometric Mean
  Vd/F: 126 L
350 mg + 525 mg, read-out: Vz/F, Mean
  Vd/F: 132 L
350 mg + 525 mg, read-out: Vz/F, Median
  Vd/F: 116 L
350 mg, 350 mg, read-out: Plasma concentration, Geometric Mean
  concentration at 6 h: 2620 ng/mL
